# Read-outs that look alike come from different tables or passages of the source. *1 amine or outer side, *2 acyl side, *3 side chain or, on linkers, in order; H or OH if unused. Where a SMILES comes first, the peptide text is derived from it. Bridges are numbered along the chain shown (N, C = ends). Where no end group is shown, it is not given here. [ ]: non-standard residue; d: D form. The star is where a group is joined. Staurosporine = CO[C@@H]1[C@H](N(C)*)C[C@H]2O[C@]1(C)n1c3ccccc3c3c4c(c5c6ccccc6n2c5c31)C(=O)NC4; Suc = O=C(CCC(=O)[*:2])[*:1]; Dap = NC[C@H](N)C(=O)O; βAla = NCCC(=O)O
# Columns and labels:
# [1] = target: T1, PKA (Homo sapiens, UniProt P17612); assay type: biochemical; details: versus Kemptide
# [2] = target: T2, cAMP-dependent protein kinase (PKA) (Homo sapiens, UniProt P17612); details: earlier proof-of-principle studies; cited from earlier work
# [3] = target: T2, cAMP-dependent protein kinase (PKA); test: PKA inhibitor IC50 determination; assay type: biochemical
# [4] = target: T1, PKA; test: PKA kinase assays in the presence of 7.5 mM DTT; assay type: biochemical
molecule,measurement,setting,value
cyclo(CTFRVFGC)G (CTFRVFGCG; disulfide 1-8 (inferred)) [1b],mode of inhibition with respect to peptide substrate (best-fit model),[1],noncompetitive
cyclo(CTFRVFGC)G [1b],IC50,[2],57 µM
Nc1ncnc2c1ncn2[C@@H]1O[C@H](C(=O)O)[C@@H](O)[C@H]1O [6a],IC50,[3],> 1000 µM
CO[C@@H]1[C@H](N(C)C(=O)CCC(=O)NCCC(=O)NCCC(=O)NCCC(=O)NCCC(=O)NCCC(=O)NCCC(=O)NCCC(=O)N[C@H]2CC(=O)NC[C@@H](C(=O)NCC(N)=O)NC(=O)CNC(=O)[C@H](Cc3ccccc3)NC(=O)[C@H](C(C)C)NC(=O)[C@H](CCCNC(=N)N)NC(=O)[C@H](Cc3ccccc3)NC(=O)[C@H]([C@@H](C)O)NC2=O)C[C@H]2O[C@]1(C)n1c3ccccc3c3c4c(c5c6ccccc6n2c5c31)C(=O)NC4 [compound 7] ({Staurosporine-Suc-βAla-βAla-βAla-βAla-βAla-βAla-βAla}-DTFRVFG[Dap]G-NH2; lactam 1-8),sensitivity to reducing conditions,[4],insensitive to reducing conditions
"CC(C)[C@@H]1NC(=O)[C@H](CCCNC(=N)N)NC(=O)[C@H](Cc2ccccc2)NC(=O)[C@H]([C@@H](C)O)NC(=O)[C@@H](NC(=O)CCNC(=O)CCNC(=O)CCNC(=O)CCNC(=O)CCNC(=O)CCNC(=O)CCNC(=O)[C@H]2O[C@@H](n3cnc4c(N)ncnc43)[C@H](O)[C@@H]2O)CSSC[C@@H](C(=O)NCC(N)=O)NC(=O)CNC(=O)[C@H](Cc2ccccc2)NC1=O [compound 6] (HELM PEPTIDE1{[Nc1ncnc2c1ncn2[C@@H]1O[C@H](C(=O)[*:2])[C@@H](O)[C@H]1O].[bAla].[bAla].[bAla].[bAla].[bAla].[bAla].[bAla].C.T.F.R.V.F.G.C.G.[am]}$PEPTIDE1,PEPTIDE1,9:R3-16:R3$$$V2.0)",improvement from the adenosine derivative 6a,[3]; ratio of PKA IC50 values,> 300 fold

# Source: publication PMC2749490 (Bioorganic & medicinal chemistry, 2009)
